Measured values as given in PubChem BioAssay (NCI).
Several values for one entry are separate records, joined by “and”; a condition that tells them apart may be missing. Equal values may be shown once.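 Where inhibition never reached the appropriate level, the endpoint shown equals the highest concentration tested. Otherwise, values were interpolated linearly from a five-concentration, 48-hour dose response in 96-well plates. GI50 is the concentration that inhibits growth by half. TGI denotes the concentration required for complete inhibition of growth.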

Tests used:
Experiment in all cases: NCI anticancer screen, dose series, 48 h
MALME-3M melanoma = test system: MALME-3M melanoma
DU-145 prostate = test system: DU-145 prostate
HOP-92 NSCLC = test system: HOP-92 NSCLC
KM12 colon = test system: KM12 colon
SK-MEL-28 melanoma = test system: SK-MEL-28 melanoma
MOLT-4 leukemia = test system: MOLT-4 leukemia
TK-10 renal = test system: TK-10 renal
SW-620 colon = test system: SW-620 colon
SK-OV-3 ovarian = test system: SK-OV-3 ovarian
CCRF-CEM leukemia = test system: CCRF-CEM leukemia

Compound	GI50 (MALME-3M melanoma)	TGI (MALME-3M melanoma)	GI50 (DU-145 prostate)	TGI (DU-145 prostate)	GI50 (HOP-92 NSCLC)	TGI (HOP-92 NSCLC)	GI50 (KM12 colon)	TGI (KM12 colon)	GI50 (SK-MEL-28 melanoma)	TGI (SK-MEL-28 melanoma)	GI50 (MOLT-4 leukemia)	TGI (MOLT-4 leukemia)	GI50 (TK-10 renal)	TGI (TK-10 renal)	GI50 (SW-620 colon)	TGI (SW-620 colon)	GI50 (SK-OV-3 ovarian)	TGI (SK-OV-3 ovarian)	GI50 (CCRF-CEM leukemia)	TGI (CCRF-CEM leukemia)
Cc1c(C(=O)Nc2ccc(N3C[C@@H](C)O[C@@H](C)C3)nc2)cccc1-c1ccc(OC(F)(F)F)cc1	12.1 µM and 13.3 µM	46.2 µM and 46 µM	8.25 µM and 4.84 µM	25.1 µM and 20.9 µM	2.51 µM and 1.79 µM	13.7 µM and 13 µM	12.7 µM and 9.64 µM	59 µM and 50.4 µM	12.9 µM and 16.8 µM	33.6 µM and 40.1 µM	7.59 µM and 8.47 µM	> 100 µM	5.48 µM and 9.98 µM	21.2 µM and 30.3 µM	10.6 µM and 13.9 µM	> 88.4 µM and 93.3 µM	11.4 µM and 15.2 µM	30 µM and 34.5 µM	9.77 µM and 50 µM	> 100 µM
Oc1c(C(c2ccc(F)cc2)N2CCCCC2)ccc2cncnc12 (stereo not given)	1.17 µM	47.9 µM	0.784 µM	> 100 µM	0.313 µM	2.96 µM	1.07 µM	> 100 µM	0.71 µM	> 100 µM	1.38 µM	> 100 µM	1.35 µM	> 100 µM	0.478 µM	> 100 µM	0.571 µM	38.8 µM	0.477 µM	> 100 µM
CC1Cc2c(Cl)ncnc2N(C)c2ccccc21 (stereo not given)	2.03 µM	7.5 µM	4.45 µM	> 100 µM	2.34 µM	7.17 µM	3.33 µM	> 100 µM	1.82 µM	26.5 µM	3.46 µM	> 100 µM	2.57 µM	8.87 µM	3.08 µM	11.2 µM	2.37 µM	12.6 µM	4.53 µM	> 100 µM
O=C(Nc1cccc([N+](=O)[O-])c1)c1cccc(C(=O)Nc2cccc([N+](=O)[O-])c2)c1	> 100 µM	> 100 µM	> 84.2 µM	> 100 µM	8.85 µM	60.7 µM	> 100 µM	> 100 µM	> 100 µM	> 100 µM	> 100 µM	> 100 µM	9.71 µM	> 61.3 µM	> 100 µM	> 100 µM	13 µM	> 82.8 µM	> 100 µM	> 100 µM
COc1cc2c(cc1OC)C(Cl)C(c1ccc(Br)cc1)=C2Cl (stereo not given)	–	28 µM	–	23.8 µM	–	36.2 µM	–	34.6 µM	–	30.7 µM	–	49.2 µM	–	23.6 µM	–	23.4 µM	–	45.9 µM	–	> 100 µM
CC12CCC(C1)C(C)(C)C2OC(=O)c1ccccc1N (stereo not given)	–	29.8 µM	–	33.3 µM	–	24.4 µM	–	38 µM	–	31.9 µM	–	25.1 µM	–	32.8 µM	–	29.6 µM	–	30.3 µM	–	3.96 µM
CC1(C)OCC2OC(n3cnc4c(N)nc(Cl)nc43)C(OS(C)(=O)=O)C2O1 (stereo not given)	–	> 100 µM	–	> 100 µM	–	> 100 µM	–	> 100 µM	–	> 100 µM	–	> 100 µM	–	> 100 µM	–	> 100 µM	–	> 100 µM	–	> 100 µM
Cc1cc(OCc2ccc(C(F)(F)F)cc2)c2c(c1)C(=O)C=C(NCCN1CCCC1)C2=O	2.09 µM	3.95 µM	6.15 µM	18.6 µM	1.96 µM	7.38 µM	4.39 µM	15.4 µM	1.69 µM	3.36 µM	3.03 µM	10.1 µM	6.85 µM	22.2 µM	1.78 µM	3.48 µM	3.45 µM	10.6 µM	2.48 µM	7.12 µM
O=C1C=CC2C3C(=O)N(c4ccccc4)C(=O)C3C1N2Cc1ccccc1 (stereo not given)	4.62 µM	9.43 µM	9.65 µM	22.4 µM	3.66 µM	9.75 µM	2.56 µM	7.43 µM	3.02 µM	11.3 µM	1.72 µM	5.42 µM	8.08 µM	18.8 µM	1.93 µM	4.32 µM	13.2 µM	26.1 µM	0.942 µM	4.12 µM
COC(=O)CC[C@@H](C)[C@H]1CC[C@H]2[C@@H]3CC[C@@H]4C[C@H](O)CC[C@]4(C)[C@H]3CC[C@]12C	–	34.8 µM	–	32.6 µM	–	27.8 µM	–	34.5 µM	–	35.6 µM	–	40.7 µM	–	37.4 µM	–	> 100 µM	–	49.9 µM	–	46.4 µM
Nc1nc(-c2ccc3c(c2)/C(=C\c2cc(Br)c(O)c(Br)c2)C(=O)N3)cs1	5.95 µM	17.4 µM	18.6 µM	> 25 µM	9.19 µM	> 25 µM	10.4 µM	> 25 µM	7.99 µM	> 25 µM	16.2 µM	> 25 µM	> 25 µM	> 25 µM	10.6 µM	> 25 µM	17.9 µM	> 25 µM	9.36 µM	> 25 µM
